How the values were obtained:
[1] = system: Substrate oligonucleotide SEQ ID NO:30; assay: RNase testing of commercially obtained reagents, visual detection; assay type: biochemical; set-up: key: +++ = maximum intensity; ++ = moderate intensity; + = faint but above background; − = negative (identical to background); settings: reagent diluted 1:10 with Assay Buffer, 50 pmoles Substrate SEQ ID NO:30, 60 minutes at 37° C., UV
Experimental: Enzymes were obtained from New England Biolabs (NEB) or Ambion as indicated. Test sample (10 ul) was mixed with 1× buffer (90 ul) for a final volume of 100 ul with 50 pmoles of Substrate SEQ ID NO:30 in 0.5 ml RNase-free microtubes. Assay Mixes were incubated 60 minutes at 37° C. and visually examined under UV excitation for fluorescence emission. After scoring for results, 1 ul (1 ug) of RNase A was added to each tube. The Assay was incubated an additional 5 minutes at 37° C. and re-scored. The addition of RNase A represents a control for the absence of an Assay inhibitor and validates negative results. The “plus RNase A” control was omitted whenever the primary assay was already positive.
Table 9: RNase testing of commercially available reagents. A series of commercially available reagents were diluted 1:10 with Assay Buffer to a final volume of 100 ul. An RNase detection assay was performed using the method of the invention with Substrate oligonucleotide SEQ ID NO:30. Reactions were examined for fluorescence emission by visual inspection using an ultraviolet (UV) light source for excitation. Results were scored as +++, ++, +, or − based on relative signal intensity. As a control, RNase A (1 ug) was added to negative reactions and the Assay was re-scored. ND=not done.

Ribonuclease A = biological target: T1, Ribonuclease A (Bos taurus, UniProt P61823); assay: Visual detection ribonuclease assay, cleavage of Substrate ODN by RNase A; assay type: biochemical, mammalian; set-up: key to Sensitivity of Substrate ODN to Ribonuclease A, relative signal intensity: +++ = maximum intensity; ++ = moderate intensity; + = faint but above background; − = negative (identical to background); settings: visual inspection, UV excitation, Substrate 500 nM, 37° C. 60 minutes
T1 sequence (P61823 27-150): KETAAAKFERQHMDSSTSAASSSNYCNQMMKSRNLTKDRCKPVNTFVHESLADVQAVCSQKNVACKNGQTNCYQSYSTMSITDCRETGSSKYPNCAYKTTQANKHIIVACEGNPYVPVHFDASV
Experimental: Nuclease assays were conducted using the methods of the invention. SEQ ID NO:2 and SEQ ID NO:30 oligonucleotides were individually mixed in 1× Assay Buffer at a concentration of 500 nM (50 pmoles ODN in 100 ul volume) in thin-walled, UV transparent microtubes. RNase A (1 ul, diluted to 0;1 ug/ul) was added to the respective Assay Mixes. […] Assays were set up directly in microtubes as follows:
Assay Mixes were incubated at room temperature for 10 minutes. Assays were visually examined for fluorescence emission directly in the assay tubes without further manipulation. Tubes were suspended above an ultraviolet light source, visually inspected, and photographed using a digital camera. […] The “positive” and “control” reactions appeared markedly different and were easily distinguished. […] The “positive” and “control” reactions were not markedly different to visual inspection.
(§1) Nuclease assays were conducted using the method of the invention with both visual and fluorometric detection methods. Substrates were individually mixed in 1× Assay Buffer at a concentration of 50 nM (50 pmoles oligonucleotide in 1 ml volume) for fluorometric detection or at a concentration of 500 nM (50 pmoles of oligonucleotide in 100 ul volume) for visual detection. Test nucleases were added to respective Assay Mixes beginning at 1 ul stock reagent and proceeding with a 1:10 serial dilution until undetectable. Reaction mixes were incubated at 37° C. for 60 minutes. Fluorometric detection was performed as outlined in Example 2. Visual detection was performed as outlined in Example 1.
(§2) Table 6: Sensitivity of different Substrate ODNs to Ribonuclease A. A series of Substrate ODNs were synthesized and tested for sensitivity to RNase A degradation. Stock enzyme was serial diluted to achieve final concentrations of 1 ng/ml, 100 pg/ml, and 10 pg/ml as indicated. Reactions were examined for fluorescence emission by visual inspection using an ultraviolet (UV) light source for excitation. Results were scored as +++, ++, +, or − based on relative signal intensity.
(§3) It is commonly accepted that fluorometry provides for high sensitivity. To be useful, the visual method must also offer high sensitivity. Assays were conducted using the method of the invention with visual detection. Substrate SEQ ID NO:30 was mixed in 1× Assay Buffer at a concentration of 500 nM (50 pmoles ODN in 100 ul volume) in thin-walled, UV transparent tubes. […] Dilutions of stock RNase A, RNase 1, and RNase T1 were made in water. Undiluted and diluted nuclease (1 ul) was added to respective 100 ul Assay Mixes resulting in final dilution factors of 10^−2, 10^−3, 10^−4, 10^−5, 10^−6, and 10^−7. Assays were incubated at room temperature for 10 minutes and visually examined for fluorescence emission with UV excitation. […] The experiment took about 30 minutes to perform, including 15 minutes to set-up serial dilutions, 10 minutes incubation, and 5 minutes to visualize and photograph. Thus the method of the invention allows for a rapid, simple, and convenient visual assay for the presence of ribonuclease activity.

Ribonuclease T1 = biological target: T2, Ribonuclease T1 (Aspergillus oryzae, UniProt P00651); assay: Visual detection ribonuclease assay, cleavage of Substrate ODN by RNase T1; assay type: biochemical; set-up: key to Sensitivity of Substrate ODN to Ribonuclease T1, relative signal intensity: +++ = maximum intensity; ++ = moderate intensity; + = faint but above background; − = negative (identical to background); settings: visual inspection, UV excitation, Substrate 500 nM, 37° C. 60 minutes
T2 sequence (P00651 27-130): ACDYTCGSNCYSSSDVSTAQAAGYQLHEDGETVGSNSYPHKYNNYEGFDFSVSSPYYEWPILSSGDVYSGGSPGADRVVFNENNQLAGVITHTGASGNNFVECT
Experimental: as §1
as §2, with “Table 7:” for “Table 6:”, “Ribonuclease T1.” for “Ribonuclease A.”, “RNase T1” for “RNase A”, “of 0.001 units/ml, 0.0001 units/ml,” for “of 1 ng/ml, 100 pg/ml,”, “and 0.00001 units/ml” for “and 10 pg/ml”
as §3

Substance	Assay Results (RNase activity in reagent, relative signal intensity) [1]	Sensitivity of Substrate ODN to Ribonuclease A, relative signal intensity (Ribonuclease A; RNase A 10 pg/ml)	Sensitivity of Substrate ODN to Ribonuclease A, relative signal intensity (Ribonuclease A; RNase A 100 pg/ml)	Sensitivity of Substrate ODN to Ribonuclease A, relative signal intensity (Ribonuclease A; RNase A 1 ng/ml)	Sensitivity of Substrate ODN to Ribonuclease T1, relative signal intensity (Ribonuclease T1; RNase T1 10^−3 units/ml)	Sensitivity of Substrate ODN to Ribonuclease T1, relative signal intensity (Ribonuclease T1; RNase T1 10^−4 units/ml)	Sensitivity of Substrate ODN to Ribonuclease T1, relative signal intensity (Ribonuclease T1; RNase T1 10^−5 units/ml)
Super Taq: commercial enzyme reagent from Ambion, sold as RNase-free	−						
T7 RNA Polymerase: commercial enzyme reagent from Ambion, sold as RNase-free	−						
5′ Fluorescein-AcguA-Dabcyl 3′ (NACGUAN; 5' fluorescein and 3' Dabcyl labels, nucleotide chemistry not given here) [SEQ ID NO:15]		−	+	+++	+++	+	−
5′ Fluorescein-AcuaA-Dabcyl 3′ (NACUAAN; 5' fluorescein and 3' Dabcyl labels, nucleotide chemistry not given here) [SEQ ID NO:17]		−	+	+++	−	−	−
5′ Fluorescein-AuagA-Dabcyl 3′ (NAUAGAN; 5' fluorescein and 3' Dabcyl labels, nucleotide chemistry not given here) [SEQ ID NO:16]		−	++	+++	+++	+++	−
Hind III: commercial enzyme from New England Biolabs, sold as RNase-free	−						
5′ Fluorescein-AcgcA-Dabcyl 3′ (NACGCAN; 5' fluorescein and 3' Dabcyl labels, nucleotide chemistry not given here) [SEQ ID NO:13]		−	+	++	+++	++	−
5′ Fluorescein-AAgAA-Dabcyl 3′ (NAAGAAN; 5' fluorescein and 3' Dabcyl labels, nucleotide chemistry not given here) [SEQ ID NO:4]		−	−	−	+	−	−
5′ Fluorescein-AcggA-Dabcyl 3′ (NACGGAN; 5' fluorescein and 3' Dabcyl labels, nucleotide chemistry not given here) [SEQ ID NO:14]		−	+	++	+++	+++	+
5′ Fluorescein-AacAA-Dabcyl 3′ (NAACAAN; 5' fluorescein and 3' Dabcyl labels, nucleotide chemistry not given here) [SEQ ID NO:8]		+	+++	+++	−	−	−
